This is an account of results in patent publication US9580409B2, “Modulators of opioid receptors and methods of use thereof” (priority 2011, dated 2017).

Test [1] deals with T1, mu-opioid receptor (Homo sapiens, UniProt P35372). Briefly: cell-based. Conditions: read-out: BArr Activity.
Target sequence in this assay (P35372 whole entry, species assumed): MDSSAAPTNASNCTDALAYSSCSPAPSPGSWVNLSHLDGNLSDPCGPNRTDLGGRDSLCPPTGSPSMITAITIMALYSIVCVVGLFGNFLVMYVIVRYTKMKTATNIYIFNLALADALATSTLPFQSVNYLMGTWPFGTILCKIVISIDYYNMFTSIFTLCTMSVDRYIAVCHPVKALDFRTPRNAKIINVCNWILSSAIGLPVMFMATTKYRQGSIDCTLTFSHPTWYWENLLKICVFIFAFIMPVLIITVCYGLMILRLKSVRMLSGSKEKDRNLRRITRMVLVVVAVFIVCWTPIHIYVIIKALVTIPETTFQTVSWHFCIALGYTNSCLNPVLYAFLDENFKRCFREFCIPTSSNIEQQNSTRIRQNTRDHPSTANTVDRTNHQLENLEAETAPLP
Target sequence in this assay (P32121 whole entry partner, species assumed): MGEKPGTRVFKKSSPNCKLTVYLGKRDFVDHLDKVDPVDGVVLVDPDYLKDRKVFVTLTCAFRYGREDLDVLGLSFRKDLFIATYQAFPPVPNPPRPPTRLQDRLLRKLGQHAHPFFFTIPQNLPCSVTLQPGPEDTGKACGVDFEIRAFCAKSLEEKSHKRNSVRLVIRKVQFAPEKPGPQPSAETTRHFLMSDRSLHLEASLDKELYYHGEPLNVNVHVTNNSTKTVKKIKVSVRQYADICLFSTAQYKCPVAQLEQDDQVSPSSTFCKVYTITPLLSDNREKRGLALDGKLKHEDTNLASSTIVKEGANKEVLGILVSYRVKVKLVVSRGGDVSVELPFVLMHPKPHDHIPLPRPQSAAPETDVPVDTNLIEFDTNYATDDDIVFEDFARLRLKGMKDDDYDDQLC
The target in test [2] is T1, mu-opioid receptor. The test can be described thus: biochemical. To be noted: read-out: GTP Activity.
Target sequence in this assay (P35372 whole entry, species assumed): as the sequence (P35372 whole entry, species assumed) above
The mark [3] stands for this setting: […], class symbol combines EC50 and efficacy.

Regarding `COc1cc(OC)cc(N2C(NC(C)C)=C(c3nc4ccccc4[nH]3)C(=O)C2(C)C)c1` [compound 90], the EC50 at mu-opioid receptor [1] (class symbols) is < 10000 nM; at mu-opioid receptor [2] (class symbols), 100 to 1000 nM.

Regarding `CC[C@H]1C(=O)C(c2nc3ccccc3[nH]2)=C(NC)N1c1cc(OC)cc(OC)c1` [compound 185], the EC50 on mu-opioid receptor [1] (class symbols) was < 10000 nM; on mu-opioid receptor [2] (class symbols), < 100 nM.

Regarding `CCC(=O)NCCC1(C)C(=O)C(c2nc3ccccc3[nH]2)=C(NC)N1c1cc(OC)cc(OC)c1` (stereo not shown) [compound 285], the EC50 on mu-opioid receptor [1] (setting [3]) is < 10000 nM; on mu-opioid receptor [2] (setting [3]), < 100 nM.

In the case of `CNC1=C(c2nc3ccccc3[nH]2)C(=O)[C@]2(CCCOC2)N1c1cc(OC)cc(OC)c1` [compound 305], the values for the EC50 on mu-opioid receptor [1] (setting [3]) and on mu-opioid receptor [2] (setting [3]) were < 10000 nM and < 100 nM, respectively.

On to `CNC1=C(c2nc3ccccc3[nH]2)C(=O)[C@@](C)(CNC(C)=O)N1c1cc(OC)cc(OC)c1` [compound 308], for which the EC50 at mu-opioid receptor [1] (setting [3]) is < 10000 nM; at mu-opioid receptor [2] (setting [3]), < 100 nM.

For `COc1cc(OC)cc(N2C(N)=C(c3nc4ccccc4[nH]3)C(=O)[C@H]2C)c1` [compound 82], the results for the EC50 on mu-opioid receptor [1] (class symbols) and at mu-opioid receptor [2] (class symbols) were < 10000 nM and < 100 nM, respectively.

Regarding `CNC1=C(c2nc3ccccc3[nH]2)C(=O)[C@@H](C)N1c1cc(OC)cc(OC)c1` [compound 136], the EC50 on mu-opioid receptor [1] (class symbols) was < 10000 nM; on mu-opioid receptor [2] (class symbols), < 100 nM.

On to `CCC(=O)NCC1(C)C(=O)C(c2nc3ccccc3[nH]2)=C(NC)N1c1cc(OC)cc(OC)c1` (stereo not shown) [compound 282], for which the values for the EC50 on mu-opioid receptor [1] (setting [3]) and at mu-opioid receptor [2] (setting [3]) were < 10000 nM and < 100 nM, respectively.

In the case of `CNC1=C(c2nc3ccccc3[nH]2)C(=O)C(CCNC(=O)c2ccccc2)N1c1cc(OC)cc(OC)c1` (stereo not shown) [compound 255], the EC50 was < 10000 nM at mu-opioid receptor [1] (setting [3]) and < 100 nM at mu-opioid receptor [2] (setting [3]).

`CNC1=C(c2nc3ccccc3[nH]2)C(=O)C2(CCC2)N1c1cc(OC)cc(OC)c1` [compound 109]: the figures for the EC50 at mu-opioid receptor [1] (class symbols) and on mu-opioid receptor [2] (class symbols) were < 10000 nM and < 100 nM, respectively.

As to `CNC1=C(c2nc3ccccc3[nH]2)C(=O)CN1c1cc(OC)cc(OC)c1` [compound 58], the results for the EC50 at mu-opioid receptor [1] (class symbols) and on mu-opioid receptor [2] (class symbols) were < 10000 nM and 100 to 1000 nM, respectively.

Regarding `CCNC1=C(c2nc3ccccc3[nH]2)C(=O)C(C)(C)N1c1cc(OC)cc(OC)c1` [compound 89], the EC50 is < 10000 nM on mu-opioid receptor [1] (class symbols) and < 100 nM on mu-opioid receptor [2] (class symbols).

With `CNC1=C(c2nc3ccccc3[nH]2)C(=O)C2(CCOC2)N1c1cc(OC)cc(OC)c1` (stereo not shown) [compound 208], the EC50 was < 10000 nM at mu-opioid receptor [1] (setting [3]) and < 100 nM at mu-opioid receptor [2] (setting [3]).

On to `CNC1=C(c2nc3ccccc3[nH]2)C(=O)[C@](C)(CCNC(C)=O)N1c1cc(OC)cc(OC)c1` [compound 303], for which the results for the EC50 at mu-opioid receptor [1] (setting [3]) and at mu-opioid receptor [2] (setting [3]) were < 10000 nM and < 100 nM, respectively.

For `CNC1=C(c2nc3ccccc3[nH]2)C(=O)[C@](C)(CNC(C)=O)N1c1cc(OC)cc(OC)c1` [compound 307], the values for the EC50 on mu-opioid receptor [1] (setting [3]) and on mu-opioid receptor [2] (setting [3]) were < 10000 nM and 100 to 1000 nM, respectively.

In the case of `CCC1C(=O)C(c2nc3ccccc3[nH]2)=C(N)N1c1cc(OC)cc(OC)c1` (stereo not shown) [compound 54], the EC50 on mu-opioid receptor [1] (class symbols) was < 10000 nM; at mu-opioid receptor [2] (class symbols), 100 to 1000 nM.

Take `CCNC1=C(c2nc3ccccc3[nH]2)C(=O)CN1c1cc(OC)cc(OC)c1` [compound 88]: the values for the EC50 on mu-opioid receptor [1] (class symbols) and at mu-opioid receptor [2] (class symbols) were < 10000 nM and 100 to 1000 nM, respectively.

Turning to `CNC1=C(c2nc3ccccc3[nH]2)C(=O)[C@@]2(CCOC2)N1c1cc(OC)cc(OC)c1` [compound 214], the EC50 on mu-opioid receptor [1] (setting [3]) is < 10000 nM; at mu-opioid receptor [2] (setting [3]) it was < 100 nM.

With `CNC1=C(c2nc3ccccc3[nH]2)C(=O)C(CCNC(C)=O)N1c1cc(OC)cc(OC)c1` (stereo not shown) [compound 254], the figures for the EC50 on mu-opioid receptor [1] (setting [3]) and at mu-opioid receptor [2] (setting [3]) were < 10000 nM and < 100 nM, respectively.

`CNC1=C(c2nc3ccccc3[nH]2)C(=O)[C@]2(CCOC2)N1c1cc(OC)cc(OC)c1` [compound 213]: the EC50 is < 10000 nM on mu-opioid receptor [1] (setting [3]) and < 100 nM at mu-opioid receptor [2] (setting [3]).

Consider `COc1cc(OC)cc(N2C(N)=C(c3nc4ccccc4[nH]3)C(=O)C2C(C)C)c1` (stereo not shown) [compound 55], for which the EC50 at mu-opioid receptor [1] (class symbols) was < 10000 nM; on mu-opioid receptor [2] (class symbols) it was 100 to 1000 nM.

`CNC1=C(c2nc3ccccc3[nH]2)C(=O)C(C)(CNC(C)=O)N1c1cc(OC)cc(OC)c1` (stereo not shown) [compound 281]: the EC50 on mu-opioid receptor [1] (setting [3]) was < 10000 nM; on mu-opioid receptor [2] (setting [3]), < 100 nM.

For `CCC(=O)NCCC1C(=O)C(c2nc3ccccc3[nH]2)=C(N)N1c1cc(OC)cc(OC)c1` (stereo not shown) [compound 235], the EC50 on mu-opioid receptor [1] (setting [3]) is < 10000 nM; at mu-opioid receptor [2] (setting [3]), < 100 nM.

Consider `COc1cc(OC)cc(N2C(N)=C(c3nc4ccccc4[nH]3)C(=O)C2(C)C)c1` [compound 2], for which the EC50 on mu-opioid receptor [1] (class symbols) is < 10000 nM; at mu-opioid receptor [2] (class symbols), 100 to 1000 nM.

For the molecule `COc1cc(OC)cc(N2C(N)=C(c3nc4ccccc4[nH]3)C(=O)C2C)c1` (stereo not shown) [compound 1], the EC50 is < 10000 nM at mu-opioid receptor [1] (class symbols) and 100 to 1000 nM on mu-opioid receptor [2] (class symbols).

On to `COc1cc(OC)cc(N2C(N)=C(c3nc4ccccc4[nH]3)C(=O)C2CCNC(C)=O)c1` (stereo not shown) [compound 233], for which the values for the EC50 on mu-opioid receptor [1] (setting [3]) and on mu-opioid receptor [2] (setting [3]) were < 10000 nM and < 100 nM, respectively.

On to `COc1cc(OC)cc(N2C(N)=C(c3nc4ccccc4[nH]3)C(=O)C2CCNC(=O)c2ccccc2)c1` (stereo not shown) [compound 236], for which the EC50 on mu-opioid receptor [1] (setting [3]) was < 10000 nM; at mu-opioid receptor [2] (setting [3]) it was < 100 nM.

On to `COc1cc(OC)cc(N2C(N)=C(c3nc4ccccc4[nH]3)C(=O)C23CCCC3)c1` [compound 180], for which the values for the EC50 on mu-opioid receptor [1] (class symbols) and at mu-opioid receptor [2] (class symbols) were < 10000 nM and 100 to 1000 nM, respectively.

Turning to `CNC1=C(c2nc3ccccc3[nH]2)C(=O)C(CNC(C)=O)N1c1cc(OC)cc(OC)c1` (stereo not shown) [compound 287], the EC50 is < 10000 nM on mu-opioid receptor [1] (setting [3]) and < 100 nM on mu-opioid receptor [2] (setting [3]).

In the case of `CNC1=C(c2nc3ccccc3[nH]2)C(=O)C(CCOC)N1c1cc(OC)cc(OC)c1` (stereo not shown) [compound 218], the EC50 was < 10000 nM on mu-opioid receptor [1] (setting [3]) and < 100 nM at mu-opioid receptor [2] (setting [3]).

As to `CCC(=O)NCC1C(=O)C(c2nc3ccccc3[nH]2)=C(NC)N1c1cc(OC)cc(OC)c1` (stereo not shown) [compound 288], the EC50 on mu-opioid receptor [1] (setting [3]) is < 10000 nM; on mu-opioid receptor [2] (setting [3]), < 100 nM.

`CNC1=C(c2nc3ccccc3[nH]2)C(=O)C(C)N1c1cc(OC)cc(OC)c1` (stereo not shown) [compound 121]: the results for the EC50 at mu-opioid receptor [1] (class symbols) and on mu-opioid receptor [2] (class symbols) were < 10000 nM and < 100 nM, respectively.

Take `COc1cc(OC)cc(N2C(N)=C(c3nc4ccccc4[nH]3)C(=O)C2CCO)c1` (stereo not shown) [compound 203]: the results for the EC50 at mu-opioid receptor [1] (setting [3]) and on mu-opioid receptor [2] (setting [3]) were < 10000 nM and < 100 nM, respectively.

Regarding `CNC1=C(c2nc3ccccc3[nH]2)C(=O)C(CC(C)O)N1c1cc(OC)cc(OC)c1` (stereo not shown) [compound 310], the EC50 on mu-opioid receptor [1] (setting [3]) was < 10000 nM; at mu-opioid receptor [2] (setting [3]), < 100 nM.

Regarding `COc1cc(OC)cc(N2C(N)=C(c3nc4ccccc4[nH]3)C(=O)C23CCOC3)c1` (stereo not shown) [compound 181], the EC50 is < 10000 nM on mu-opioid receptor [1] (class symbols) and 100 to 1000 nM on mu-opioid receptor [2] (class symbols).
